Test results: paper PMC11912475 (Journal of Medicinal Chemistry, 2025)

Experiments:
[1] = target: T1, GluN1-GluN2B NMDAR subtype (Homo sapiens, UniProt Q05586+Q13224); experiment: FLIPR/Ca2+ assay, NMDAR GluN1-GluN2B subtype in CHO cells; type: cell-based; details: CHO cells, 10 μM L-glutamate and 10 μM glycine, n.d. = 50% of inhibition could not be reached at the highest concentration used
T1 construct: host or cells: NR1-2B-CHO cells, constitutive expression
Procedure: (§1) These compounds were assessed for their effects on specific heterodimeric NMDAR subtypes stably overexpressed in Chinese Hamster Ovary (CHO) cells. The subtypes tested included GluN1-GluN2A, GluN1-GluN2B, GluN1-GluN2C, and GluN1-GluN2D. CHO cells expressing each of the four NMDAR subtypes were incubated with 10 μM L-glutamate, a concentration known to elicit maximal Ca^2+ influx, serving as the stimulus. Intracellular Ca^2+ levels were subsequently measured to determine the extent of NMDAR activation.
(§2) Assay buffer composition was 145 mM NaCl, 5 mM KCl, 2 mM CaCl2, 1 g/Liter D-(+)-glucose, and 20 mM HEPES (pH 7.3 adjusted with NaOH). Cells were plated at a density of 15.000/well in 384 black/clear bottom plates. […] Cells were kept at 30 °C in 5% CO2 incubator for 24 h. Cells were preloaded for 1 h with 2 μM Fluo-4 Ca^2+-sensitive probe, simultaneously with 2.5 mM probenecid, an inhibitor of nonspecific anion transport, and 500 μM ketamine to avoid cytotoxicity. […] Intracellular Ca^2+ level was monitored by FLIPR (excitation wavelength at 470–495 nm, emission wavelength at 515–575 nm) for 10 s before and 5 min after the addition of test items. All test items, including L-glutamate and glycine, were added simultaneously. […] FLIPR data were normalized as 100%, in the presence of 10 μM L-glutamate and 10 μM glycine, while as 0%, in the presence of assay buffer. […] Then, data were normalized by Excel 2013 (Microsoft Office) software, using wells added with 10 μM L-glutamate plus 10 μM glycine (column 23) as high control, and wells added with assay buffer only (column 24) as low control. To assess plate quality, Z′ calculations were performed in Excel. Z′ was calculated according to following equation: Z′ = 1–3(σh + σl)/|μh – μL| where μ and σ are the means and the standard deviations of the means of high (h) and low (l) controls, respectively. Compound concentration–response curves were plotted by Prism 8 GraphPad software, in the different experimental conditions (see Supporting Information). Data were analyzed using least-squares regression fitting, to fit data to a standard four parameters logistic equation using GraphPad Prism10. This regression fitting allowed the calculation of pIC50 and the corresponding SEM.

[2] = target: T2, Histamine H1 (Homo sapiens, UniProt P35367); experiment: Radioligand displacement binding assay, [3H]pyrilamine, H1
T2 construct: host or cells: CHO-K1

[3] = target: T3, Serotonin 5-HT2C (Homo sapiens, UniProt P28335); experiment: Radioligand displacement binding assay, [3H]mesulergine, 5-HT2C
T3 construct: host or cells: CHO-K1
T3 sequence (P28335 33-458): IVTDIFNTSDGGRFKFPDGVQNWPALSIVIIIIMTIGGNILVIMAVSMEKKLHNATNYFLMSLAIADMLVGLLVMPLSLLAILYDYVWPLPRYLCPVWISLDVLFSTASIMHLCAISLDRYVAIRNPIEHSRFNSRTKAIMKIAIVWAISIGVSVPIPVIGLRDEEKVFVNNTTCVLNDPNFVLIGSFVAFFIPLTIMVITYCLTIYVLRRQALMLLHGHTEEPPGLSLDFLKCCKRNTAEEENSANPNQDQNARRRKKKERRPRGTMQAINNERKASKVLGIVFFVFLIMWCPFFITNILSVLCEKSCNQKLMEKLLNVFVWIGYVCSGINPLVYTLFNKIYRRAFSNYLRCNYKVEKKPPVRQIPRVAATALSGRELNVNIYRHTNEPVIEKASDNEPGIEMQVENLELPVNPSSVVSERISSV

[4] = target: T4, Serotonin transporter SERT (Homo sapiens, UniProt P31645); experiment: Radioligand displacement binding assay, [3H]paroxetine, SERT
T4 construct: host or cells: HEK-293

[5] = target: T5, Serotonin 5-HT1A (Homo sapiens, UniProt P08908); experiment: Radioligand displacement binding assay, [3H]8-OH-DPAT, 5-HT1A
T5 construct: host or cells: CHO-K1
T5 sequence (P08908 1-422): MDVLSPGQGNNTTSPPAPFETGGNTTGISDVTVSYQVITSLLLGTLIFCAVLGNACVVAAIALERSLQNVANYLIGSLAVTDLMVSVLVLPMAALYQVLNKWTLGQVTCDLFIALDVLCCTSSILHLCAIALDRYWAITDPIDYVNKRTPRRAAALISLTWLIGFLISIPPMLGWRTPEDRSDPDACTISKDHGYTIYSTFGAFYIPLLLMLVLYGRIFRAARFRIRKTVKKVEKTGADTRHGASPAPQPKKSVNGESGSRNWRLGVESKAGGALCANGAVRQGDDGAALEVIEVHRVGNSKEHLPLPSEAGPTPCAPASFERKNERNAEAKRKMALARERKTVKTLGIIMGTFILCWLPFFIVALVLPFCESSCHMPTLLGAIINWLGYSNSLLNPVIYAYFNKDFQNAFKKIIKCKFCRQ

[6] = target: GluN1-GluN2C NMDAR subtype (Homo sapiens, UniProt Q05586+Q14957); experiment: FLIPR/Ca2+ assay, NMDAR GluN1-GluN2C subtype in CHO cells; type: cell-based; details: CHO cells, 10 μM L-glutamate and 10 μM glycine, n.d. = 50% of inhibition could not be reached at the highest concentration used
Procedure: as §1, §2

[7] = target: T6, Norepinephrine transporter NET (Homo sapiens, UniProt P23975); experiment: Radioligand displacement binding assay, [125I]RTI-55, NET
T6 construct: host or cells: MDCK

[8] = target: T7, Serotonin 5-HT7 (Homo sapiens, UniProt P34969); experiment: Radioligand displacement binding assay, [3H]LSD, 5-HT7
T7 construct: host or cells: CHO-K1

[9] = system: Glutamate, NMDA, Phencyclidine binding site; experiment: Radioligand displacement binding assay, [3H]TCP, NMDA; design: species or system Wistar rat
[10] = target: GluN1-GluN2A NMDAR subtype (Homo sapiens, UniProt Q05586+Q12879); experiment: FLIPR/Ca2+ assay, NMDAR GluN1-GluN2A subtype in CHO cells; type: cell-based; details: CHO cells, 10 μM L-glutamate and 10 μM glycine, n.d. = 50% of inhibition could not be reached at the highest concentration used
Procedure: as §1, §2

[11] = target: GluN1-GluN2D NMDAR subtype (Homo sapiens, UniProt O15399+Q05586); experiment: FLIPR/Ca2+ assay, NMDAR GluN1-GluN2D subtype in CHO cells; type: cell-based; details: CHO cells, 10 μM L-glutamate and 10 μM glycine, n.d. = 50% of inhibition could not be reached at the highest concentration used
Procedure: as §1, §2

[12] = target: T8, Serotonin 5-HT5A (Homo sapiens, UniProt P47898); experiment: Radioligand displacement binding assay, [3H]LSD, 5-HT5A
T8 construct: host or cells: CHO-K1

[13] = target: T9, Muscarinic M5 (Homo sapiens, UniProt P08912); experiment: Radioligand displacement binding assay, [3H]N-methylscopolamine, M5
T9 construct: host or cells: CHO-K1
T9 sequence (P08912 1-532): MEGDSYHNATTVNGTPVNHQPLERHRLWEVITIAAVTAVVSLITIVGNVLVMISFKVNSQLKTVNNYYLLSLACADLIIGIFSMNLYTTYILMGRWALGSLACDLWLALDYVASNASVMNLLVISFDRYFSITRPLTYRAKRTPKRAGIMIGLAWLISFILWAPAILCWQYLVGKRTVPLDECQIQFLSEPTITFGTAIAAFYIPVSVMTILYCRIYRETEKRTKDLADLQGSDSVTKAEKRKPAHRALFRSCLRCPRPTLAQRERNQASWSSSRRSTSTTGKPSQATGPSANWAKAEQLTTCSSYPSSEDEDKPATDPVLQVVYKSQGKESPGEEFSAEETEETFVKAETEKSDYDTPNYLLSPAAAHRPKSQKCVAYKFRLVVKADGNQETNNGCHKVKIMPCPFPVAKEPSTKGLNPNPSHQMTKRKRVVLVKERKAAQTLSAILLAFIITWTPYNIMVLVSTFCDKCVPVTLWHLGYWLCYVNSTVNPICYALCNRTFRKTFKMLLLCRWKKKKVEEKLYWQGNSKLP

[14] = target: T10, Sigma σ1 (Homo sapiens, UniProt Q99720); experiment: Radioligand displacement binding assay, [3H]pentazocine, sigma σ1
T10 construct: Sigma σ1; Source: Human Jurkat cells; host or cells: Jurkat

[15] = target: T11, μ opioid receptor (MOP) (Homo sapiens, UniProt P35372); experiment: biochemical; type: binding; details: for inhibition at 0.3 µM / inhibition at 3 µM: read-out: % inhibition of binding, MOP
T11 construct: host or cells: CHO-K1

[16] = target: T12, Serotonin 5-HT2A (Homo sapiens, UniProt P28223); experiment: Radioligand displacement binding assay, [3H]ketanserin, 5-HT2A
T12 construct: host or cells: CHO-K1
T12 sequence (P28223 whole entry): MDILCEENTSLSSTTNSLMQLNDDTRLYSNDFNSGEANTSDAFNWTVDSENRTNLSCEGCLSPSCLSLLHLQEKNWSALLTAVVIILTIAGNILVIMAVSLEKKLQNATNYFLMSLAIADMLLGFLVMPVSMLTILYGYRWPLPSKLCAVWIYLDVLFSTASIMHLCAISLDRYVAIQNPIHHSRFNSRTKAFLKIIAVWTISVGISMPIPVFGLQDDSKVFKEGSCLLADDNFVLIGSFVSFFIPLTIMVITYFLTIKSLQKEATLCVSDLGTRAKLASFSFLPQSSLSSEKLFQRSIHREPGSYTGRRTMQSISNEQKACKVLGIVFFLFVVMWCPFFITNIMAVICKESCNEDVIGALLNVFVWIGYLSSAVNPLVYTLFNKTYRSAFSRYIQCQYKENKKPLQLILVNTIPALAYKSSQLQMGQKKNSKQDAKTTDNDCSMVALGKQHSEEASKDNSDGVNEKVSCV

Chain of GluN1-GluN2A NMDAR subtype (Q12879 23-1464, other chains not shown): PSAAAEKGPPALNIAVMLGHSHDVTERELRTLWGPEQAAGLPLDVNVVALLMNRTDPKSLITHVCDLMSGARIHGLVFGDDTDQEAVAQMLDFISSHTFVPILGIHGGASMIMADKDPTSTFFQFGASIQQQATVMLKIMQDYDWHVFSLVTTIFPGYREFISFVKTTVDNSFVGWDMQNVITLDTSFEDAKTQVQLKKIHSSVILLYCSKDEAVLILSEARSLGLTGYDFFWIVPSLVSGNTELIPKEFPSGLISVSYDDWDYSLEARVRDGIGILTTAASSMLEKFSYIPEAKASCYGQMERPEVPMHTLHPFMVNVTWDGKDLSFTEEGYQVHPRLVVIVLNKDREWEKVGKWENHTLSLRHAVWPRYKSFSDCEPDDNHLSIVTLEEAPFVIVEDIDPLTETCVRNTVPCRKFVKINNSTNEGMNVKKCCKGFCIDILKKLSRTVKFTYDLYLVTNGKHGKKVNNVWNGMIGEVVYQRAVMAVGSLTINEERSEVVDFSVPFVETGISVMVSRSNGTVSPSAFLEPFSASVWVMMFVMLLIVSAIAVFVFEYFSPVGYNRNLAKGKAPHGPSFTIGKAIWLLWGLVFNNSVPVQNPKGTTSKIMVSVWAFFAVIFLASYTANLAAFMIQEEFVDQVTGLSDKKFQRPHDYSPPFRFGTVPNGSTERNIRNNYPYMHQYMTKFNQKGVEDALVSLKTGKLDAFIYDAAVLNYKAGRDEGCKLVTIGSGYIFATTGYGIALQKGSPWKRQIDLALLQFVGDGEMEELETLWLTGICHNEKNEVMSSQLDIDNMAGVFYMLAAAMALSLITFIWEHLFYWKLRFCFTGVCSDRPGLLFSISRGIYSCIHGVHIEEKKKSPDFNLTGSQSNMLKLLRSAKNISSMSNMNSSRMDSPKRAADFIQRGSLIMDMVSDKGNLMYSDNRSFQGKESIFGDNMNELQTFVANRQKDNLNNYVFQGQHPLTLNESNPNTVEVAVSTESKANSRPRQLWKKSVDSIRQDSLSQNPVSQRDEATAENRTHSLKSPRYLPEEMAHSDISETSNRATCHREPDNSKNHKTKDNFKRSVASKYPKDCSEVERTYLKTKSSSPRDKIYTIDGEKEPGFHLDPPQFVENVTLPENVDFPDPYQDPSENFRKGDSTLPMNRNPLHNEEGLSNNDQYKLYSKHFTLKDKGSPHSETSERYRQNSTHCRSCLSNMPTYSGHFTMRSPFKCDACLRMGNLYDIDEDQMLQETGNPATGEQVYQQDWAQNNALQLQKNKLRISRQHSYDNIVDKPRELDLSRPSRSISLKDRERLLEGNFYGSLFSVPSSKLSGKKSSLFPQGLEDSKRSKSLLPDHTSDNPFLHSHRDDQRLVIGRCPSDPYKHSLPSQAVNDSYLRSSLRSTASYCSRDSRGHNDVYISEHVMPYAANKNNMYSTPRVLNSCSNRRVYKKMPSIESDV
Chain of GluN1-GluN2D NMDAR subtype (O15399 28-1336, other chains not shown): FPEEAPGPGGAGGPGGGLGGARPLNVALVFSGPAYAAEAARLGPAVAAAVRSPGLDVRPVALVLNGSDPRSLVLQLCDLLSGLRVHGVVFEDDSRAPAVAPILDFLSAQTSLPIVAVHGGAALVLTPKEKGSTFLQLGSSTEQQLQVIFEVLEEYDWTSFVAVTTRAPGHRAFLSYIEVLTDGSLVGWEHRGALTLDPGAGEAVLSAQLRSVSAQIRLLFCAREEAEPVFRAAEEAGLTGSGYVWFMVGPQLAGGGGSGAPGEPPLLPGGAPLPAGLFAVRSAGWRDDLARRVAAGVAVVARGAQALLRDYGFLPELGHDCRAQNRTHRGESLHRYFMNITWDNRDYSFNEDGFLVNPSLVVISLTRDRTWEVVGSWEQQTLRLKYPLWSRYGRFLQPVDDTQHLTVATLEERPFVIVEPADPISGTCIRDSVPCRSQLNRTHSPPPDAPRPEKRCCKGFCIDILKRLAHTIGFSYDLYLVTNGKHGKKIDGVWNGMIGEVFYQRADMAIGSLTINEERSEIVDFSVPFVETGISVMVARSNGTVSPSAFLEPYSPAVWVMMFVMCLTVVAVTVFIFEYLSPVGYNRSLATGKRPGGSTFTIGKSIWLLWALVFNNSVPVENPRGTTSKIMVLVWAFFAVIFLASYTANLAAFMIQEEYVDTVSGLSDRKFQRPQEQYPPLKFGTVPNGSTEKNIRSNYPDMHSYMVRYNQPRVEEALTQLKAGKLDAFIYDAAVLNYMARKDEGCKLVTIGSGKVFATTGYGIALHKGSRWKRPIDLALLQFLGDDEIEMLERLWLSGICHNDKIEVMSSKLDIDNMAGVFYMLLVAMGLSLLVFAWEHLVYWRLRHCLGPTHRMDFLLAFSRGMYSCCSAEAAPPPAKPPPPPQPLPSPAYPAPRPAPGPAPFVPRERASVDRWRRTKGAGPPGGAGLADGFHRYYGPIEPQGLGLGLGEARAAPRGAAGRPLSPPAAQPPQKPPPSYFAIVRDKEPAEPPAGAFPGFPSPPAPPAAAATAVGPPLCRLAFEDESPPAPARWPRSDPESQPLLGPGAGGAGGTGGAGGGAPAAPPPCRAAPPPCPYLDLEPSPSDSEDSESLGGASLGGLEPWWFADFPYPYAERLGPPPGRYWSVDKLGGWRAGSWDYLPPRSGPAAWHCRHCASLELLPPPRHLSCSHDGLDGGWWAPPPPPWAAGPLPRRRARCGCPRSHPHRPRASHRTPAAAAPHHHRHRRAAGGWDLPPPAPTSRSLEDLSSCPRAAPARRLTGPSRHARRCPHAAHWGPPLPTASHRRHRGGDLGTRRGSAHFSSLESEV
T7 sequence (P34969 whole entry): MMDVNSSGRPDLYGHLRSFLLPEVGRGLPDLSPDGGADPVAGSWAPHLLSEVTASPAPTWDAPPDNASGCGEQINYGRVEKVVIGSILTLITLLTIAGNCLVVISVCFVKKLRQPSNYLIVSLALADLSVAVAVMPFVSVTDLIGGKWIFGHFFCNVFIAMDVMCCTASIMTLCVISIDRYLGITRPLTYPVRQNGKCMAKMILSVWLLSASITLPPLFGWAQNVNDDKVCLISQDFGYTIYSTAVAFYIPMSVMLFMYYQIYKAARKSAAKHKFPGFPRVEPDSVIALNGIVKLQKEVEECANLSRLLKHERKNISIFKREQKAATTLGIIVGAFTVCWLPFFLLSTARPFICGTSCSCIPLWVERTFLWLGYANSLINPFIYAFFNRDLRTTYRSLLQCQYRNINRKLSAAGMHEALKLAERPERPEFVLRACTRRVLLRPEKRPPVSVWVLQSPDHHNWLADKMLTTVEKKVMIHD
T11 sequence (P35372 whole entry): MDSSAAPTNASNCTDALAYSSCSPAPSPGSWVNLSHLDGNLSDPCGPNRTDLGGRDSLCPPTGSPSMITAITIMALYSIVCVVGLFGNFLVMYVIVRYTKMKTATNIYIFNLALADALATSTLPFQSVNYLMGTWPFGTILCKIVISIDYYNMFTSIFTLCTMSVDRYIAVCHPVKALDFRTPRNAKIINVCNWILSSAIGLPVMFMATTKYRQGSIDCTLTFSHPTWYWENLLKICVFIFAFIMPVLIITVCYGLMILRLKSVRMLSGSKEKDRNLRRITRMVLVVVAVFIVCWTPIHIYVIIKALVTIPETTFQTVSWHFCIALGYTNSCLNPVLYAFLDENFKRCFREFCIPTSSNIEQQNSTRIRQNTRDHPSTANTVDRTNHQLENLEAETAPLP
T8 sequence (P47898 whole entry): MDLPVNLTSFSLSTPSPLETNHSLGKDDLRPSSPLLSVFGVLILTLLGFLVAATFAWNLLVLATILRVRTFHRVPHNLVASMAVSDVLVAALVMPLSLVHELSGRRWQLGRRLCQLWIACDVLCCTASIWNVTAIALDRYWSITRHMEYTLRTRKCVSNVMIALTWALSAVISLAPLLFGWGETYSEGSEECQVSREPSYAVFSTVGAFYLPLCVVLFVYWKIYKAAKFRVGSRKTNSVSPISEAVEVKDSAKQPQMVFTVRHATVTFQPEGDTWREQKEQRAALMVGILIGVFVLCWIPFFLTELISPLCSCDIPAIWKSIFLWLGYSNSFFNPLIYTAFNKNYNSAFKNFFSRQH
T10 sequence (Q99720 whole entry): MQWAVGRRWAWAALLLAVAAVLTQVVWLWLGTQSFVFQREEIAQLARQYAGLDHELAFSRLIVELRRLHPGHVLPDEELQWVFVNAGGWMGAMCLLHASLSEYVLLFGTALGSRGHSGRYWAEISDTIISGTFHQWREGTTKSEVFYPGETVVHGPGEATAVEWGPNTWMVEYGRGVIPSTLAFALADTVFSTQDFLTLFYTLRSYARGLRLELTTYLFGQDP

SMILES	pIC50 (mean ± SEM) GluN1-GluN2B [1]	inhibition at 10 µM [2]	inhibition at 30 µM [2]	inhibition at 0.3 µM [3]	inhibition at 3 µM [3]	inhibition at 1 µM [4]	inhibition at 10 µM ([4]; 10 μM)	inhibition at 0.3 µM [5]	inhibition at 3 µM [5]	pIC50 (mean ± SEM) GluN1-GluN2C [6]	inhibition at 1 µM [7]	inhibition at 10 µM [7]	inhibition at 1 µM [8]	inhibition at 10 µM [8]	% inhibition of binding, NMDA ([9]; 1 μM)	% inhibition of binding, NMDA ([9]; 10 μM)	pIC50 (mean ± SEM) GluN1-GluN2A [10]	pIC50 (mean ± SEM) GluN1-GluN2D [11]	inhibition at 1 µM [12]	inhibition at 10 µM [12]	other results
CC[C@@H](O)C(C[C@@H](C)N)(c1ccccc1)c1ccccc1 [(3R,6R)-DNML, (3R,6R)-6-amino-4,4-diphenylheptan-3-ol]	4.6 ± 0.054	3%	9%	7%	16%	-1%	20%	0%	4%	4.7 ± 0.050	4%	6%	12%	8%	12%	54%	4.8 ± 0.060	4.7 ± 0.058	4%	-4%	inhibition at 1 µM [13]: -1%; inhibition at 10 µM [13]: 33%; inhibition at 0.3 µM [14]: 14%; inhibition at 3 µM [14]: 47%; inhibition at 0.3 µM [15]: -7%; inhibition at 3 µM [15]: 9%; inhibition at 0.3 µM [16]: 6%; inhibition at 3 µM [16]: 8%
CC[C@@H](O)C(C[C@@H](C)NC)(c1ccccc1)c1ccccc1 [(3R,6R)-NML, (3R,6R)-6-(methylamino)-4,4-diphenylheptan-3-ol]	4.8 ± 0.055	15%	20%	18%	16%	18%	69%	-9%	-10%	5.0 ± 0.048	-2%	14%	4%	5%	17%	57%	5.0 ± 0.081	5.0 ± 0.052	13%	63%	% inhibition of binding, SERT ([4]; 10 μM): displaced; pKi (mean ± SEM) [3H]TCP, NMDA ([9]; Wistar rat cerebral cortex, 4.0 nM [3H]TCP): 5.56 ± 0.07; inhibition at 1 µM [13]: 15%; inhibition at 10 µM [13]: 43%; inhibition at 0.3 µM [14]: 4%; inhibition at 3 µM [14]: 33%; pKi (mean ± SEM) [3H]diprenorphine, MOP [15]: 5.64 ± 0.09; inhibition at 0.3 µM [15]: 4%; inhibition at 3 µM [15]: 11%; inhibition at 0.3 µM [16]: 0%; inhibition at 3 µM [16]: -3%
C[C@H]1CC(c2ccccc2)(c2ccccc2)C(=O)N1C [(S)-DDPO, 1,5-Dimethyl-3,3-diphenylpyrrolidin-2-one]																					IC50 ([1]; read-out: pIC50 (mean ± SEM) GluN1-GluN2B (converted)): > 100 µM; IC50 ([6]; read-out: pIC50 (mean ± SEM) GluN1-GluN2C (converted)): > 100 µM; IC50 ([10]; read-out: pIC50 (mean ± SEM) GluN1-GluN2A (converted)): > 100 µM; IC50 ([11]; read-out: pIC50 (mean ± SEM) GluN1-GluN2D (converted)): > 100 µM
